This note sets out measurements from ChEMBL document CHEMBL3132769, “Fragment growing to retain or alter the selectivity of anchored kinase hinge-binding fragments” (Medchemcomm, 2014).

In assay [1] the target is T1, Mitogen-activated protein kinase 13 (Homo sapiens) (UniProt O15264).
T1 sequence (whole entry): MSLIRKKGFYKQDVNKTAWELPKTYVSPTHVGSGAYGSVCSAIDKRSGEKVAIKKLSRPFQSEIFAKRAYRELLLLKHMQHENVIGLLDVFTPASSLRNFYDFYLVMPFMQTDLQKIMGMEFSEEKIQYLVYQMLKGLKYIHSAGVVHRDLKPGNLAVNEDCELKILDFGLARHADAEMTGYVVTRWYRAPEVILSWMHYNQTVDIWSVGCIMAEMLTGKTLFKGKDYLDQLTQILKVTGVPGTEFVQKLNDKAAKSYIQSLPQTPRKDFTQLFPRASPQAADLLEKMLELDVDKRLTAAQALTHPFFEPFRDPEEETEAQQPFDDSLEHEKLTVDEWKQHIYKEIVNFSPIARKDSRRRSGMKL
Briefly: Inhibition of human full length p38 delta expressed in Escherichia coli cell assessed as substrate phosphorylation using fluorescence-labelled peptides as substrate at 0.2 uM after 90 mins by microfluidic peptide phosphorylation assay.

Assay [2] addresses T2, MAP kinase-activated protein kinase 5 (Homo sapiens) (UniProt Q8IW41).
T2 sequence (whole entry): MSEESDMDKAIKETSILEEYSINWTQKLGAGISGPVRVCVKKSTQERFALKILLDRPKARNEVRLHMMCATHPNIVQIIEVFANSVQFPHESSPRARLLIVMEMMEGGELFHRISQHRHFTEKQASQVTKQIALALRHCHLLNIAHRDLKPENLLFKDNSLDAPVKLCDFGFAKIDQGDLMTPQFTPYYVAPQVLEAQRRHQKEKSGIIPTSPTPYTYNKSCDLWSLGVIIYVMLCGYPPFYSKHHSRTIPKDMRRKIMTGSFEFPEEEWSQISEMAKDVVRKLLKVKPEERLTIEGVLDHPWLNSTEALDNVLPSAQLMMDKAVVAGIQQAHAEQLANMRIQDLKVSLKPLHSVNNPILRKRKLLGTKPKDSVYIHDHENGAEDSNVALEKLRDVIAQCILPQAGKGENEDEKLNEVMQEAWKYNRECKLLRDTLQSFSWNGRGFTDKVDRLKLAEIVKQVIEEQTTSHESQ
Briefly: Inhibition of human full length PRAK expressed in baculovirus assessed as substrate phosphorylation using fluorescence-labelled peptides as substrate at 0.2 uM after 90 mins by microfluidic peptide phosphorylation assay.

Assay [3] has as its target Tyrosine-protein kinase HCK (Homo sapiens) (UniProt P08631). Briefly: Inhibition of human HCK catalytic domain expressed in baculovirus assessed as substrate phosphorylation using fluorescence-labelled peptides as substrate at 0.1 uM after 90 mins by microfluidic peptide phosphorylation assay.
For assay [4], the target named is RAF proto-oncogene serine/threonine-protein kinase (Homo sapiens) (UniProt P04049). As to the kind of experiment: Inhibition of human truncated c-Raf expressed in baculovirus assessed as substrate phosphorylation using fluorescence-labelled peptides as substrate at 0.1 uM after 90 mins by microfluidic peptide phosphorylation assay.
The target in assay [5] is Protein kinase C theta type (Homo sapiens) (UniProt Q04759). Briefly: Inhibition of human truncated PKC theta expressed in baculovirus assessed as substrate phosphorylation using fluorescence-labelled peptides as substrate at 420 uM after 90 mins by microfluidic peptide phosphorylation assay.
Assay [6] has as its target Dual specificity tyrosine-phosphorylation-regulated kinase 1A (Rattus norvegicus) (UniProt Q63470). As to the kind of experiment: Inhibition of rat full length DYRK1a expressed in Escherichia coli cell assessed as substrate phosphorylation using fluorescence-labelled peptides as substrate at 95 uM after 90 mins by microfluidic peptide phosphorylation assay.
Assay [7] concerns the target Hepatocyte growth factor receptor (Homo sapiens) (UniProt P08581). Briefly: Inhibition of human MET cytoplasmic domain expressed in baculovirus assessed as substrate phosphorylation using fluorescence-labelled peptides as substrate at 95 uM after 90 mins by microfluidic peptide phosphorylation assay.
In assay [8] the target is Proto-oncogene tyrosine-protein kinase Src (Homo sapiens) (UniProt P12931). Briefly: Inhibition of human full length SRC expressed in baculovirus assessed as substrate phosphorylation using fluorescence-labelled peptides as substrate at 95 uM after 90 mins by microfluidic peptide phosphorylation assay.
In assay [9] the target is Tyrosine-protein kinase Lck (Homo sapiens) (UniProt P06239). Briefly: Inhibition of human full length LCK expressed in baculovirus assessed as substrate phosphorylation using fluorescence-labelled peptides as substrate at 9 uM after 90 mins by microfluidic peptide phosphorylation assay.
The target of assay [10] is Mitogen-activated protein kinase 1 (Homo sapiens) (UniProt P28482). As to the kind of experiment: Inhibition of human full length ERK2 expressed in Escherichia coli cell assessed as substrate phosphorylation using fluorescence-labelled peptides as substrate at 8 uM after 90 mins by microfluidic peptide phosphorylation assay.
Assay [11] concerns Fibroblast growth factor receptor 2 (Homo sapiens), P21802 [N549H]. As to the kind of experiment: Inhibition of human FGFR2 N549H mutant catalytic domain expressed in baculovirus assessed as substrate phosphorylation using fluorescence-labelled peptides as substrate at 8 uM after 90 mins by microfluidic peptide phosphorylation assay.
Assay [12] deals with Proto-oncogene tyrosine-protein kinase Src (Homo sapiens) (UniProt P12931). Briefly: Inhibition of human full length SRC expressed in baculovirus assessed as substrate phosphorylation using fluorescence-labelled peptides as substrate at […] after 90 mins by microfluidic peptide phosphorylation assay.
Assay [13] has as its target Protein kinase C eta type (Homo sapiens) (UniProt P24723). As to the kind of experiment: Inhibition of human truncated PKC eta expressed in baculovirus assessed as substrate phosphorylation using fluorescence-labelled peptides as substrate at […] after 90 mins by microfluidic peptide phosphorylation assay.
For assay [14], the target named is Calcium/calmodulin-dependent protein kinase type II subunit delta (Homo sapiens) (UniProt Q13557). As to the kind of experiment: Inhibition of human full length CAMK2D expressed in baculovirus assessed as substrate phosphorylation using fluorescence-labelled peptides as substrate at 1000 uM after 90 mins by microfluidic peptide phosphorylation assay.
Assay [15] concerns the target Calcium/calmodulin-dependent protein kinase type II subunit beta (Homo sapiens) (UniProt Q13554). Briefly: Inhibition of human CAMK2 beta catalytic domain expressed in baculovirus assessed as substrate phosphorylation using fluorescence-labelled peptides as substrate at 1000 uM after 90 mins by microfluidic peptide phosphorylation assay.
Assay [16] addresses MAP/microtubule affinity-regulating kinase 3 (Homo sapiens) (UniProt P27448). Briefly: Inhibition of human full length c-TAK1 expressed in Escherichia coli cell assessed as substrate phosphorylation using fluorescence-labelled peptides as substrate at 2 uM after 90 mins by microfluidic peptide phosphorylation assay.
The target of assay [17] is Dual specificity tyrosine-phosphorylation-regulated kinase 1A (Rattus norvegicus) (UniProt Q63470). Briefly: Inhibition of rat full length DYRK1a expressed in Escherichia coli cell assessed as substrate phosphorylation using fluorescence-labelled peptides as substrate at 2 uM after 90 mins by microfluidic peptide phosphorylation assay.
Assay [18] deals with Ribosomal protein S6 kinase alpha-2 (Homo sapiens) (UniProt Q15349). As to the kind of experiment: Inhibition of human full length RSK3 expressed in baculovirus assessed as substrate phosphorylation using fluorescence-labelled peptides as substrate at 70 uM after 90 mins by microfluidic peptide phosphorylation assay.
In assay [19] the test system is Fibroblast growth factor receptor 2 (Homo sapiens), P21802 [N549H]. As to the kind of experiment: Inhibition of human FGFR2 N549H mutant catalytic domain expressed in baculovirus assessed as substrate phosphorylation using fluorescence-labelled peptides as substrate at 70 uM after 90 mins by microfluidic peptide phosphorylation assay.

The structures appear in SMILES notation.

Chain of Fibroblast growth factor receptor 2 (Homo sapiens), P21802 [N549H] (P21802 whole entry N549H, the tested form may be a part): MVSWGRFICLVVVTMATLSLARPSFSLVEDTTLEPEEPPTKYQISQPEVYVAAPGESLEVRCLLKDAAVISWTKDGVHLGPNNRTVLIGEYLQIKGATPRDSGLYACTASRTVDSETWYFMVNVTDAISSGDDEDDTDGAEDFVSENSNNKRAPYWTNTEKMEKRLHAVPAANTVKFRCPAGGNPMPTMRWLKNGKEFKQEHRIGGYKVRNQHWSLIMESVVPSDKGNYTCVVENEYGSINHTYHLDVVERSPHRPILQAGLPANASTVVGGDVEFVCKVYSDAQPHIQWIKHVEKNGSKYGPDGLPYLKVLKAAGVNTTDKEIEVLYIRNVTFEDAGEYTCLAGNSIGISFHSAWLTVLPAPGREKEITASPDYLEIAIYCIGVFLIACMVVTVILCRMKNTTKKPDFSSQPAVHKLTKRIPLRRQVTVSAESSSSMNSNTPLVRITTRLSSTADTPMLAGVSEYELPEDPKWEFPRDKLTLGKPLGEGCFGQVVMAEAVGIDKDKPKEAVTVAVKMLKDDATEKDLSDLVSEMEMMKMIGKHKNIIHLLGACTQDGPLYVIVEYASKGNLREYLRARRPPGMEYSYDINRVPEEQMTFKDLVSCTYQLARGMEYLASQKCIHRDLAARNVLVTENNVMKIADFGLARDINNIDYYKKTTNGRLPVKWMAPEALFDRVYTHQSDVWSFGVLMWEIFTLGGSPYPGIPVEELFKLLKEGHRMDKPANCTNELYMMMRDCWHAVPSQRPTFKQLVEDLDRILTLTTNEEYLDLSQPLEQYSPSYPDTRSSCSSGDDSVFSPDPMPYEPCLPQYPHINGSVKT
Chain of Proto-oncogene tyrosine-protein kinase Src (Homo sapiens) (P12931 2-536 limits assumed): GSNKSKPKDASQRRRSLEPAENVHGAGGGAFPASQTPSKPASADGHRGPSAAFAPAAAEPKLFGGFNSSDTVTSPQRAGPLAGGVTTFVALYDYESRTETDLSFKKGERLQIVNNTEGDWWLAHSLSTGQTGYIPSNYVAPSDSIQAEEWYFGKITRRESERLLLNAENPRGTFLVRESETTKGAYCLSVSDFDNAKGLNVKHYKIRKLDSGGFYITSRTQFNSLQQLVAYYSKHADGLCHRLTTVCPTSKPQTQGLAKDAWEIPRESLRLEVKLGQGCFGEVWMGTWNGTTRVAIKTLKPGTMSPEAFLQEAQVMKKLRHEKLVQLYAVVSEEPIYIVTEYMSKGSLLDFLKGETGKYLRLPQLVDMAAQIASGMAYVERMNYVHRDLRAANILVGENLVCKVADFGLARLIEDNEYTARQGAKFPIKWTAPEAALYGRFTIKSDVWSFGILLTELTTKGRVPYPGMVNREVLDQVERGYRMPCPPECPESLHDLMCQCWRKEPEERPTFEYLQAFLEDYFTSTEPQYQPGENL
Chain of Protein kinase C theta type (Homo sapiens) (Q04759 whole entry, looked up, the tested form may be a part): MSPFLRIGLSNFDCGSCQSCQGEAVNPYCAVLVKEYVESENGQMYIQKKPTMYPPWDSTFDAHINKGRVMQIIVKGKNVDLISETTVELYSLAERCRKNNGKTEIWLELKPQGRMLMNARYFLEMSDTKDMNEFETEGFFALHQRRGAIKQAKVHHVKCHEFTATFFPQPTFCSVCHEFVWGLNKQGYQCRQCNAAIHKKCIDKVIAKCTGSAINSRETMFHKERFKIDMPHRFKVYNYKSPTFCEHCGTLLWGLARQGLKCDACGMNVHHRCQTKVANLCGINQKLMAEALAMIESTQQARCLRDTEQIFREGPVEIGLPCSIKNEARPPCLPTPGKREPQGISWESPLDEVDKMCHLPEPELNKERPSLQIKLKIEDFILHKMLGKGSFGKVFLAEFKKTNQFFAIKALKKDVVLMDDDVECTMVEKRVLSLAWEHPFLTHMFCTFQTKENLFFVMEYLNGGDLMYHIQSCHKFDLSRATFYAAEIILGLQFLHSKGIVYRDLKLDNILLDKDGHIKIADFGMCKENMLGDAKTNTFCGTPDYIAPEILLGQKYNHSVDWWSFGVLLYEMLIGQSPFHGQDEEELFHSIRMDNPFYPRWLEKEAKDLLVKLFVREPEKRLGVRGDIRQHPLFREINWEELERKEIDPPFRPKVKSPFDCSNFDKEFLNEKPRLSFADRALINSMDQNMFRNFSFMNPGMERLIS
Chain of Hepatocyte growth factor receptor (Homo sapiens) (P08581 whole entry, the tested form may be a part): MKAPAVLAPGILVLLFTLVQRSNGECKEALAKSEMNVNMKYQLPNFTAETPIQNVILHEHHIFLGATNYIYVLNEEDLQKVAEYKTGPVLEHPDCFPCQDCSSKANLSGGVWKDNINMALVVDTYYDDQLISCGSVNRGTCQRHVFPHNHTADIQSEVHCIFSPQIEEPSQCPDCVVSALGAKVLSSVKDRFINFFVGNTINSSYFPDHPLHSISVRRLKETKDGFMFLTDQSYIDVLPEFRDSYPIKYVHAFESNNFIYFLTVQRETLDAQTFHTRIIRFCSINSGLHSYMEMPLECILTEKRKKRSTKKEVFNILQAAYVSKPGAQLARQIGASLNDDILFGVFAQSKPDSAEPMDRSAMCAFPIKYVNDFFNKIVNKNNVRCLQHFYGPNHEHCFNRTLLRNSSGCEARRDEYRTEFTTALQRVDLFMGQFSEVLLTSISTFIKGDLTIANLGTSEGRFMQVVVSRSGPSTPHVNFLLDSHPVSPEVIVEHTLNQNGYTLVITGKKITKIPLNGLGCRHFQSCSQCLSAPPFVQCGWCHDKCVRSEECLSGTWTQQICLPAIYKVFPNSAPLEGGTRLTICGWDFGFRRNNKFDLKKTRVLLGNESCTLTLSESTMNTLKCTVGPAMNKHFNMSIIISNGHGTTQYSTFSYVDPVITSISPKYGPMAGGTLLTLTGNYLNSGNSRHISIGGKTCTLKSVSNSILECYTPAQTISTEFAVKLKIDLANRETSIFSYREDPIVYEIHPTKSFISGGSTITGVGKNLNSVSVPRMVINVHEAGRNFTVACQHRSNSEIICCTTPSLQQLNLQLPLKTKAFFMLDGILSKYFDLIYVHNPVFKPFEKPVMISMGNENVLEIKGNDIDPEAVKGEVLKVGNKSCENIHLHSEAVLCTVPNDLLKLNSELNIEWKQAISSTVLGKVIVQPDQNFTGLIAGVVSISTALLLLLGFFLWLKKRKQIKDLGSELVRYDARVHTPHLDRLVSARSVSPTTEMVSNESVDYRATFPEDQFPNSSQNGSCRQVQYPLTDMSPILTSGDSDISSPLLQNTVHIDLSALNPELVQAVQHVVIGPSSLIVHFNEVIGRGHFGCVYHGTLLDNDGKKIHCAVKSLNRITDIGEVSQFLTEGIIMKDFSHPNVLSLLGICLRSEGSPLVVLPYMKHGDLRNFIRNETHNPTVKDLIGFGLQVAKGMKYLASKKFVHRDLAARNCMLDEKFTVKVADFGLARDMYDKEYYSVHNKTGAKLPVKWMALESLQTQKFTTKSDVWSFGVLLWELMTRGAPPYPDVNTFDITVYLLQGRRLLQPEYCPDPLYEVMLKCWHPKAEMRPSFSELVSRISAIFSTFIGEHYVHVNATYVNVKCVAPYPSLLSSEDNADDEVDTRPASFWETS
Chain of Protein kinase C eta type (Homo sapiens) (P24723 whole entry, the tested form may be a part): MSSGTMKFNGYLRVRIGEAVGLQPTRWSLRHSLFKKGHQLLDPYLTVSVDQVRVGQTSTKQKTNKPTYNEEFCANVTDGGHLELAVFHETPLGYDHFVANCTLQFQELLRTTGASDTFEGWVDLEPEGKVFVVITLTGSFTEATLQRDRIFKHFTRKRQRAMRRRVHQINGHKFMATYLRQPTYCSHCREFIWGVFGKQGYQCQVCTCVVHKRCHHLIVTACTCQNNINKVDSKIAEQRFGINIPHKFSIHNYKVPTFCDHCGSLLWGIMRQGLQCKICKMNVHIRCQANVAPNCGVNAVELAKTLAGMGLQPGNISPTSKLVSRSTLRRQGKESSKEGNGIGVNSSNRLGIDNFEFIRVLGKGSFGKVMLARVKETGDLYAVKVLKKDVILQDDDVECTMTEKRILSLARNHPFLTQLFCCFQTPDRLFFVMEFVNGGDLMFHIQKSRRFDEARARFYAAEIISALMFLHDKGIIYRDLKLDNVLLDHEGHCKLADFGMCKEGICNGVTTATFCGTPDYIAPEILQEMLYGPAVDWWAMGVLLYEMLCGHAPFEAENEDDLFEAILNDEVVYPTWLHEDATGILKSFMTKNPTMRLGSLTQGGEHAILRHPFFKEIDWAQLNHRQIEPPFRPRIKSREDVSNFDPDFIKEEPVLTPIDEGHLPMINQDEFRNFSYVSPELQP
Chain of MAP/microtubule affinity-regulating kinase 3 (Homo sapiens) (P27448 whole entry, looked up): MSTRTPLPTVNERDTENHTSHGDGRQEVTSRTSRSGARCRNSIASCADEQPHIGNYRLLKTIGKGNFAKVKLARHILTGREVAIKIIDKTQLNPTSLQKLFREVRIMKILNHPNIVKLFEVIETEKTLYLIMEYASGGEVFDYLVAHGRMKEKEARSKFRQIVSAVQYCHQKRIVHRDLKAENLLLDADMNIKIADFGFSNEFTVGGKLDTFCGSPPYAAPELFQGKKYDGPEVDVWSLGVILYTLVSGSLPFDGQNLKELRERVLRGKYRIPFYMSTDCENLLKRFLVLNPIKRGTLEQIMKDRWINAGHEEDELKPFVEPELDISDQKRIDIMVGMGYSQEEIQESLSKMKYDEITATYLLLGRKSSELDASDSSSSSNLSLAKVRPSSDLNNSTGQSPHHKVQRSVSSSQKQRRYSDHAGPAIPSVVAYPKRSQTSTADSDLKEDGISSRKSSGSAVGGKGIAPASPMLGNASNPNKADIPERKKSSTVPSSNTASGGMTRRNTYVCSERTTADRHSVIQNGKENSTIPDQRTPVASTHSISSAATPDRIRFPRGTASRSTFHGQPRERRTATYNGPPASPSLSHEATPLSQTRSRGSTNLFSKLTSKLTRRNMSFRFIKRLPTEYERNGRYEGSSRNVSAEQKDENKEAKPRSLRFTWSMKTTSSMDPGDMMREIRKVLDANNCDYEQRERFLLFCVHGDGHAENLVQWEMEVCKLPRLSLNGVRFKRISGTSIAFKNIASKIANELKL

For orientation: inhibition means the percentage by which the read-out fell short of the control. For `Clc1ccc(C2(c3ccc(-c4ncnc5[nH]cnc45)cc3)CCNCC2)cc1`, the results for the inhibition in [1] and in assay [2] were 11% and 8.5%, respectively.

In the case of `C[C@H](CN(C)C)Oc1nc(Nc2cc3cccc(Cl)c3cn2)cnc1C#N`, the inhibition in [3] and in assay [4] was 4% throughout.

As to `c1nc(N2CCOCC2)c2nc[nH]c2n1`, in [5], the inhibition is 67.5%.

Regarding `NCCc1ccc(-c2ncnc3[nH]cnc23)cc1`, the inhibition in [6] stood at 79%; in assay [7] it was 5.5%; in assay [8], 62%.

`NCC1CN(c2ncnc3[nH]c4cnccc4c23)CCO1` (centres undefined): the inhibition in assay [9] amounted to 39%.

Consider `NCC1CCN(c2ncnc3[nH]ccc23)CC1`, for which the inhibition came out at 7.5% in assay [10] and 0% in assay [11].

Turning to `COC(=O)c1cnc(Nc2cnc(C#N)cn2)cc1NCC1CCNCC1`, the inhibition stood at 7.5% in [12] and 1% in assay [13].

For `c1cnc2[nH]ccc2c1`, the inhibition in assay [14] is 37.5%; in assay [15], 30%.

Turning to `NC1CCN(c2ncnc3[nH]ccc23)CC1`, the inhibition was determined as 3% in assay [16] and 0.5% in assay [17].

`CNCc1ccc(-c2ncnc3[nH]cnc23)cc1`: the results for the inhibition in assay [18] and in assay [19] were 81% and 35.5%, respectively.
